Test results published in patent publication US8911713B2, “Method for preventing or treating skin tumor” (Galderma Research & Development, priority 2010, dated 2014).
Read-outs that look alike come from different tables or passages of the source.

Tested on: UV-induced skin tumor
Conditions: for Tumor Yield (≧1 mm): average number of tumors per survivor; for Median Week to Tumor (≧1 mm): 100 μL/mouse, 5 days/wk, + 600 RBU/week UVR, 40 weeks + 12 weeks observation
Description: Albino hairless SKH1-hr mice (36/sex/group) were treated for 40 weeks with UVR and brimonidine gel or vehicle according to the design in table 11. […] Topical treatments were performed approximately one hour before UVR on Monday, Wednesday and Friday of each week and approximately one hour after UVR Tuesday and Thursday of each week.

SMILES: Brc1c(NC2=NCCN2)ccc2nccnc12 [Brimonidine, (5-Bromo-quinoxalin-6-yl)-(4,5-dihydro-1H-imidazol-2-yl)-amine]
- Reduction of tumor yield (≧1 mm) compared to the vehicle group (0.18% topical + 600 RBU/week UVR): 1.7 fold
- Members of the group that acquired one or more qualifying tumors (≧1 mm) within the 52-week study period (1% topical + 600 RBU/week UVR): less than one-half
- Reduction of tumor yield (≧1 mm) compared to the vehicle group (1% topical + 600 RBU/week UVR): 4.7 fold
- Members of the group that acquired one or more qualifying tumors (≧1 mm) within the 52-week study period (2% topical + 600 RBU/week UVR): less than one-half
- Reduction of tumor yield (≧1 mm) compared to the vehicle group (2% topical + 600 RBU/week UVR): 8.1 fold
- Tumor Yield (≧1 mm) (Group 2: 0.18% topical + 600 RBU/week UVR): 2.40 tumors per survivor
- Median Week to Tumor (≧1 mm) (Group 2: 0.18% topical): 48 Week
- Tumor Yield (≧1 mm) (Group 3: 1% topical + 600 RBU/week UVR): 0.85 tumors per survivor
- Median Week to Tumor (≧1 mm) (Group 3: 1% topical): >52 Week
- Tumor Yield (≧1 mm) (Group 4: 2% topical + 600 RBU/week UVR): 0.49 tumors per survivor
- Median Week to Tumor (≧1 mm) (Group 4: 2% topical): >52 Week
- UV-induced skin tumor formation (topical 0.18%, 1% and 2% + 600 RBU/week UVR): dose-dependent delay
- Sizes of tumors (tumor prevalence by size, FIG. 1) (with increasing concentration, topical, sexes combined): the sizes of tumors were also reduced
